Assay results as given in PubChem BioAssay (NCI).
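Five compound concentrations were applied to cells in 96-well plates for 48 hours; endpoints were derived by simple linear interpolation of the resulting dose-response curve. At the GI50, growth is halved. TGI marks complete inhibition of growth.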

Legend:
Assay in all cases: NCI anticancer screen, dose series, 48 h
IGROV1 ovarian = system: IGROV1 ovarian
SF-295 CNS = system: SF-295 CNS
SR leukemia = system: SR leukemia
UACC-257 melanoma = system: UACC-257 melanoma
NCI/ADR-RES ovarian = system: NCI/ADR-RES ovarian
HS 578T breast = system: HS 578T breast
MCF7 breast = system: MCF7 breast
OVCAR-4 ovarian = system: OVCAR-4 ovarian
RPMI-8226 leukemia = system: RPMI-8226 leukemia
M14 melanoma = system: M14 melanoma
SNB-78 CNS = system: SNB-78 CNS

| Compound | TGI (IGROV1 ovarian) | TGI (SF-295 CNS) | TGI (SR leukemia) | TGI (UACC-257 melanoma) | TGI (NCI/ADR-RES ovarian) | TGI (HS 578T breast) | TGI (MCF7 breast) | TGI (OVCAR-4 ovarian) | TGI (RPMI-8226 leukemia) | GI50 (SF-295 CNS) | GI50 (SR leukemia) | GI50 (UACC-257 melanoma) | GI50 (NCI/ADR-RES ovarian) | GI50 (M14 melanoma) | GI50 (HS 578T breast) | GI50 (MCF7 breast) | GI50 (OVCAR-4 ovarian) | GI50 (RPMI-8226 leukemia) | TGI (M14 melanoma) | TGI (SNB-78 CNS) |
| --- | --- | --- | --- | --- | --- | --- | --- | --- | --- | --- | --- | --- | --- | --- | --- | --- | --- | --- | --- | --- |
| N=c1c2c(=S)n(-c3ccccc3)c(=S)n(-c3ccccc3)c2nc(SCCCN2CCN(c3cccc(Cl)c3)CC2)n1-c1ccccc1 | > 100 µM | > 100 µM | > 100 µM | > 100 µM | > 100 µM | > 100 µM | > 100 µM | > 100 µM | > 100 µM |  |  |  |  |  |  |  |  |  |  |  |
| Nc1nc(Cl)cc(OCC2(CO)CC(OCc3ccccc3)C2)n1 (stereo unspecified) |  |  |  |  |  |  |  |  |  | 50.1 µM | 40.6 µM | 49.5 µM | 45.8 µM | 95 µM | 34 µM | 46.2 µM | 47.9 µM | 26.7 µM |  |  |
| N=C(N)c1ccc(-c2ccc(-c3ccccc3)s2)cc1 |  |  | 4.13 µM |  |  | 5.04 µM |  | 3.21 µM |  |  | 0.668 µM |  |  | 1.68 µM | 1.94 µM |  | 1.59 µM |  | 3.51 µM |  |
| CCCCCCCC/C=C\CCCCCCCC(=O)O | > 281 µM | 176 µM |  | 201 µM | 196 µM |  | 215 µM | > 352 µM | 277 µM |  |  |  |  |  |  |  |  |  |  | 130 µM |
| CC(=O)Oc1ccc2c(c1)oc1c3ccc(OC(C)=O)cc3n(C)c(=O)c21 | > 100 µM | > 100 µM | > 100 µM | > 100 µM | 51.7 µM | > 100 µM | > 100 µM |  |  |  |  |  |  |  |  |  |  |  | > 100 µM |  |
| O=C1C=CC2=[N+]([O-])C(c3ccccc3)(c3ccccc3)C(=Nc3ccccc3)C2=C1 | 3.45 µM | 27.7 µM | 0.763 µM | 4.11 µM |  |  |  | 3.28 µM | 7.83 µM |  |  |  |  |  |  |  |  |  | 3.76 µM | 15.6 µM |
| Cc1cc(C)c2c(c1)CC1(Cc3c(C)ccc(C)c3C1=O)C2=O (stereo unspecified) | > 100 µM | > 100 µM | > 100 µM | > 100 µM | > 100 µM | > 100 µM | > 100 µM | > 100 µM | > 100 µM |  |  |  |  |  |  |  |  |  | > 100 µM |  |
| CCNc1nnc(-c2nsc3ccccc23)s1 | > 100 µM |  | > 100 µM | > 100 µM |  |  |  | > 100 µM | > 100 µM |  |  |  |  |  |  |  |  |  | > 100 µM | > 100 µM |
| COC(=O)c1cccc(N[C@@H]2c3cc4c(cc3C(c3cc(OC)c(O)c(OC)c3)[C@H]3C(=O)OCC32)OCO4)c1 (stereo partly specified) | > 50.7 µM | 5.96 µM |  | 7.82 µM | > 85.1 µM |  | > 67.7 µM | > 100 µM | > 20.2 µM |  |  |  |  |  |  |  |  |  |  | 98.7 µM |
| C=C1C(=O)C[C@@]23CCC[C@@]12CC(OCOC)C3 (stereo partly specified) | 6.02 µM | 17.3 µM |  | 7.82 µM | 9.5 µM |  | 3.74 µM | 5.66 µM | 9.8 µM |  |  |  |  |  |  |  |  |  |  | 22.5 µM |
| S=P1(N2CCCCC2)Oc2ccc3ccccc3c2-c2c(ccc3ccccc23)O1 | > 100 µM | > 100 µM |  | > 100 µM | > 100 µM |  | > 100 µM | 97.6 µM | > 100 µM |  |  |  |  |  |  |  |  |  |  | > 100 µM |
| Cc1ccc([N+](=O)[O-])cc1S(=O)(=O)Nc1ccc(C2=NNC(c3ccccc3O)C2)cc1 (stereo unspecified) | > 100 µM | 90.9 µM | 87.7 µM | > 100 µM | 81 µM | > 100 µM | 64.7 µM | 63.8 µM | > 100 µM |  |  |  |  |  |  |  |  |  | 51.6 µM |  |
